What was measured:
bacterial blight in rice = test: whole plant or invertebrate; details: Oryza sativa, read-out: efficacy against bacterial blight in rice
[1] = system: indoor potted cucumber seedlings; test: Effect of improving growth and development of crops; assay type: in vivo; design: Rate of growth rate increase (%): concentration or dose not given beside the values; details: versus blank control; for Rate of chlorophyll content increase (%) / Rate of leaf area increase (%): 14 days after application; for Rate of growth rate increase (%): plant height 14 days after application; for Rate of leaf area increase (%): second leaf
Protocol: Taking indoor potted cucumber seedlings as an example, the influence of the compound disclosed herein on growth rate of plant height, chlorophyll content, leaf area, etc. of crops was mainly evaluated.
The plant heights of plants before application and 14 days after the application were measured.
The growth rates were calculated according to formula (1)
The rates of the growth rate increase (%) were calculated according to formula (2)
The longitudinal and transverse diameters (i.e., leaf length and leaf width, respectively, wherein the leaf length is the distance from the base to the tip of a leaf, and leaf width is the measured value of the upper shoulder width of the leaf) of the second leaf of plants before application and 14 days after the application were measured.
The leaf areas were calculated according to formula (3)
The leaf area increases were calculated according to formula (4)
The rates of the leaf area increases were calculated according to formula (5)
The chlorophyll contents of leaves were measured by using a chlorophyll measuring instrument (model: SPAD-520 Plus).
The chlorophyll content increases were calculated according to formula (6)
The rates of the chlorophyll content increases were calculated according to formula (7)

[2] = system: fruit blotch in watermelons; test: whole plant or invertebrate; details: read-out: efficacy against fruit blotch in watermelons
[3] = system: pathogenic bacteria causing black rot in Chinese cabbages; test: In vitro bactericidal activity, black rot in Chinese cabbages; assay type: cell-based, xanthomonas; details: Xanthomonas, read-out: inhibitory rate; for inhibition at 1 ppm: dosage 1 ppm; for inhibition at 5 ppm: dosage 5 ppm
[4] = system: pathogenic bacteria causing fruit blotch in watermelons; test: In vitro bactericidal activity, fruit blotch in watermelons; assay type: cell-based, acidovorax; details: read-out: inhibitory rate; for inhibition at 1 ppm: dosage 1 ppm; for inhibition at 5 ppm: dosage 5 ppm
[5] = system: pathogenic bacteria causing bacterial angular leaf spot in cucumbers; test: In vitro bactericidal activity, bacterial angular leaf spot in cucumbers; assay type: cell-based, pseudomonas; details: read-out: inhibitory rate; for inhibition at 1 ppm: dosage 1 ppm; for inhibition at 5 ppm: dosage 5 ppm
[6] = system: pathogenic bacteria causing bacterial blight in rice; test: whole plant or invertebrate; assay type: cell-based, xanthomonas; details: read-out: inhibitory rate
[7] = system: pathogenic bacteria causing stem rot in sweet potatoes; test: In vitro bactericidal activity, stem rot in sweet potatoes; assay type: cell-based, dikia; details: read-out: inhibitory rate; for inhibition at 1 ppm: dosage 1 ppm; for inhibition at 5 ppm: dosage 5 ppm
[8] = system: pathogenic bacteria causing black shank in potatoes; test: In vitro bactericidal activity, black shank in potatoes; assay type: cell-based; details: read-out: inhibitory rate; for inhibition at 1 ppm: dosage 1 ppm; for inhibition at 5 ppm: dosage 5 ppm
black shank in potatoes = test: Living crops in vivo protective activity, potatoes (root irrigation); details: Solanum tuberosum, read-out: efficacy against black shank in potatoes; for pest or weed control at 5 ppm: dosage 5 ppm; for pest or weed control at 10 ppm: dosage 10 ppm
Protocol: Root irrigation was carried out on the potatoes for tests according to the designed concentration of the agents. The dosage for each plant was 200 mL and was kept consistent (also for the control). The black shank bacteria were inoculated on the second day after the application. The results were investigated according to the disease condition.

[9] = system: pathogenic bacteria causing fire blight in pears; test: In vitro bactericidal activity, fire blight in pears; assay type: cell-based, erwinia; details: Erwinia, read-out: inhibitory rate; for inhibition at 1 ppm: dosage 1 ppm; for inhibition at 5 ppm: dosage 5 ppm
[10] = system: bacterial wilt in tobacco; test: whole plant or invertebrate; details: Nicotiana tabacum, read-out: efficacy against bacterial wilt in tobacco
cucumber seedlings = test: Safety for plant growth after application; assay type: in vivo; details: dosage 200 ppm
Method in brief: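 Potted cucumber seedlings grown indoors; read-outs: plant-height growth rate, chlorophyll content, leaf area.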

[11] = system: soft rot in Chinese cabbages; test: whole plant or invertebrate; details: 48 h, read-out: efficacy against soft rot in Chinese cabbages
[12] = system: pathogenic bacteria causing bacterial wilt in tobacco; test: whole plant or invertebrate; assay type: cell-based, ralstonia; details: read-out: inhibitory rate
[13] = system: stem rot in sweet potatoes; test: whole plant or invertebrate; details: read-out: efficacy against stem rot in sweet potatoes
[14] = system: pathogenic bacteria causing bacterial wilt in cassava; test: organism not typed; assay type: cell-based; details: read-out: inhibitory rate

## O=C(OCCCO)c1cn(C2CC2)c2cc(Cl)c(F)cc2c1=O [Compound 164, 3-hydroxypropyl 7-chloro-1-cyclopropyl-6-fluoro-4-oxo-1,4-dihydroquinoline-3-carboxylate]
Bacterial blight in rice
  pest or weed control at 5 ppm: ≥ 90%
  pest or weed control at 10 ppm: ≥ 90%
[1]
  Rate of chlorophyll content increase (%): 19%
  Rate of growth rate increase (%): 12%
  Rate of leaf area increase (%): 16%
[2]
  pest or weed control at 5 ppm: ≥ 90%
  pest or weed control at 10 ppm: ≥ 90%
[3]
  inhibition at 1 ppm: ≥ 90%
  inhibition at 5 ppm: ≥ 90%
[4]
  inhibition at 1 ppm: ≥ 90%
  inhibition at 5 ppm: ≥ 90%
[5]
  inhibition at 1 ppm: ≥ 90%
  inhibition at 5 ppm: ≥ 90%
[6]
  inhibition at 1 ppm: ≥ 90%
  inhibition at 5 ppm: ≥ 90%
[7]
  inhibition at 1 ppm: ≥ 90%
  inhibition at 5 ppm: ≥ 90%
[8]
  inhibition at 1 ppm: ≥ 90%
  inhibition at 5 ppm: ≥ 90%
Black shank in potatoes
  pest or weed control at 5 ppm: ≥ 90%
  pest or weed control at 10 ppm: ≥ 90%
[9]
  inhibition at 1 ppm: ≥ 90%
  inhibition at 5 ppm: ≥ 90%
[10]
  pest or weed control at 5 ppm: ≥ 90%
  pest or weed control at 10 ppm: ≥ 90%
Cucumber seedlings
  safety for plant growth (discoloration, necrosis, wilt, malformation): safe for plant growth
[11]
  pest or weed control at 5 ppm: ≥ 90%
  pest or weed control at 10 ppm: ≥ 90%
[12]
  inhibition at 1 ppm: ≥ 90%
  inhibition at 5 ppm: ≥ 90%
[13]
  pest or weed control at 5 ppm: ≥ 90%
  pest or weed control at 10 ppm: ≥ 90%
[14]
  inhibition at 1 ppm: ≥ 90%
  inhibition at 5 ppm: ≥ 90%

## COCCOC(=O)c1cn(C2CC2)c2cc(OC3CC3)c(F)cc2c1=O [Compound 294, 2-methoxyethyl 7-cyclopropoxy-1-cyclopropyl-6-fluoro-4-oxo-1,4-dihydroquinoline-3-carboxylate]
Bacterial blight in rice
  pest or weed control at 5 ppm: ≥ 90%
  pest or weed control at 10 ppm: ≥ 90%
[1]
  Rate of chlorophyll content increase (%): 10%
  Rate of growth rate increase (%): 9%
  Rate of leaf area increase (%): 12%
[2]
  pest or weed control at 5 ppm: ≥ 90%
  pest or weed control at 10 ppm: ≥ 90%
[3]
  inhibition at 1 ppm: ≥ 90%
  inhibition at 5 ppm: ≥ 90%
[4]
  inhibition at 1 ppm: ≥ 90%
  inhibition at 5 ppm: ≥ 90%
[5]
  inhibition at 1 ppm: ≥ 90%
  inhibition at 5 ppm: ≥ 90%
[6]
  inhibition at 1 ppm: ≥ 90%
  inhibition at 5 ppm: ≥ 90%
[7]
  inhibition at 1 ppm: ≥ 90%
  inhibition at 5 ppm: ≥ 90%
[8]
  inhibition at 1 ppm: ≥ 90%
  inhibition at 5 ppm: ≥ 90%
Black shank in potatoes
  pest or weed control at 5 ppm: ≥ 90%
  pest or weed control at 10 ppm: ≥ 90%
[9]
  inhibition at 1 ppm: ≥ 90%
  inhibition at 5 ppm: ≥ 90%
[10]
  pest or weed control at 5 ppm: ≥ 90%
  pest or weed control at 10 ppm: ≥ 90%
Cucumber seedlings
  safety for plant growth (discoloration, necrosis, wilt, malformation): safe for plant growth
[11]
  pest or weed control at 5 ppm: ≥ 90%
  pest or weed control at 10 ppm: ≥ 90%
[12]
  inhibition at 1 ppm: ≥ 90%
  inhibition at 5 ppm: ≥ 90%
[13]
  pest or weed control at 5 ppm: ≥ 90%
  pest or weed control at 10 ppm: ≥ 90%
[14]
  inhibition at 1 ppm: ≥ 90%
  inhibition at 5 ppm: ≥ 90%

## O=C(OCCO)c1cn(C2CC2)c2cc(N3CCOCC3)c(F)cc2c1=O [Compound 425]
Bacterial blight in rice
  pest or weed control at 5 ppm: ≥ 90%
  pest or weed control at 10 ppm: ≥ 90%
[1]
  Rate of chlorophyll content increase (%): 13%
  Rate of growth rate increase (%): 10%
  Rate of leaf area increase (%): 11%
[2]
  pest or weed control at 5 ppm: ≥ 90%
  pest or weed control at 10 ppm: ≥ 90%
[3]
  inhibition at 1 ppm: ≥ 90%
  inhibition at 5 ppm: ≥ 90%
[4]
  inhibition at 1 ppm: ≥ 90%
  inhibition at 5 ppm: ≥ 90%
[5]
  inhibition at 1 ppm: ≥ 90%
  inhibition at 5 ppm: ≥ 90%
[6]
  inhibition at 1 ppm: ≥ 90%
  inhibition at 5 ppm: ≥ 90%
[7]
  inhibition at 1 ppm: ≥ 90%
  inhibition at 5 ppm: ≥ 90%
[8]
  inhibition at 1 ppm: ≥ 90%
  inhibition at 5 ppm: ≥ 90%
Black shank in potatoes
  pest or weed control at 5 ppm: ≥ 90%
  pest or weed control at 10 ppm: ≥ 90%
[9]
  inhibition at 1 ppm: ≥ 90%
  inhibition at 5 ppm: ≥ 90%
[10]
  pest or weed control at 5 ppm: ≥ 90%
  pest or weed control at 10 ppm: ≥ 90%
Cucumber seedlings
  safety for plant growth (discoloration, necrosis, wilt, malformation): safe for plant growth
[11]
  pest or weed control at 5 ppm: ≥ 90%
  pest or weed control at 10 ppm: ≥ 90%
[12]
  inhibition at 1 ppm: ≥ 90%
  inhibition at 5 ppm: ≥ 90%
[13]
  pest or weed control at 5 ppm: ≥ 90%
  pest or weed control at 10 ppm: ≥ 90%
[14]
  inhibition at 1 ppm: ≥ 90%
  inhibition at 5 ppm: ≥ 90%

## CCSc1cc2c(cc1F)c(=O)c(C(=O)OCCOC)cn2C1CC1 [Compound 382]
Bacterial blight in rice
  pest or weed control at 5 ppm: ≥ 90%
  pest or weed control at 10 ppm: ≥ 90%
[1]
  Rate of chlorophyll content increase (%): 13%
  Rate of growth rate increase (%): 10%
  Rate of leaf area increase (%): 10%
[2]
  pest or weed control at 5 ppm: ≥ 90%
  pest or weed control at 10 ppm: ≥ 90%
[3]
  inhibition at 1 ppm: ≥ 90%
  inhibition at 5 ppm: ≥ 90%
[4]
  inhibition at 1 ppm: ≥ 90%
  inhibition at 5 ppm: ≥ 90%
[5]
  inhibition at 1 ppm: ≥ 90%
  inhibition at 5 ppm: ≥ 90%
[6]
  inhibition at 1 ppm: ≥ 90%
  inhibition at 5 ppm: ≥ 90%
[7]
  inhibition at 1 ppm: ≥ 90%
  inhibition at 5 ppm: ≥ 90%
[8]
  inhibition at 1 ppm: ≥ 90%
  inhibition at 5 ppm: ≥ 90%
Black shank in potatoes
  pest or weed control at 5 ppm: ≥ 90%
  pest or weed control at 10 ppm: ≥ 90%
[9]
  inhibition at 1 ppm: ≥ 90%
  inhibition at 5 ppm: ≥ 90%
[10]
  pest or weed control at 5 ppm: ≥ 90%
  pest or weed control at 10 ppm: ≥ 90%
Cucumber seedlings
  safety for plant growth (discoloration, necrosis, wilt, malformation): safe for plant growth
[11]
  pest or weed control at 5 ppm: ≥ 90%
  pest or weed control at 10 ppm: ≥ 90%
[12]
  inhibition at 1 ppm: ≥ 90%
  inhibition at 5 ppm: ≥ 90%
[13]
  pest or weed control at 5 ppm: ≥ 90%
  pest or weed control at 10 ppm: ≥ 90%
[14]
  inhibition at 1 ppm: ≥ 90%
  inhibition at 5 ppm: ≥ 90%

## COCCOC(=O)c1cn(C2CC2)c2cc(OC(C)(C)C)c(F)cc2c1=O [Compound 287]
Bacterial blight in rice
  pest or weed control at 5 ppm: ≥ 90%
  pest or weed control at 10 ppm: ≥ 90%
[1]
  Rate of chlorophyll content increase (%): 13%
  Rate of growth rate increase (%): 10%
  Rate of leaf area increase (%): 10%
[2]
  pest or weed control at 5 ppm: ≥ 90%
  pest or weed control at 10 ppm: ≥ 90%
[3]
  inhibition at 1 ppm: ≥ 90%
  inhibition at 5 ppm: ≥ 90%
[4]
  inhibition at 1 ppm: ≥ 90%
  inhibition at 5 ppm: ≥ 90%
[5]
  inhibition at 1 ppm: ≥ 90%
  inhibition at 5 ppm: ≥ 90%
[6]
  inhibition at 1 ppm: ≥ 90%
  inhibition at 5 ppm: ≥ 90%
[7]
  inhibition at 1 ppm: ≥ 90%
  inhibition at 5 ppm: ≥ 90%
[8]
  inhibition at 1 ppm: ≥ 90%
  inhibition at 5 ppm: ≥ 90%
Black shank in potatoes
  pest or weed control at 5 ppm: ≥ 90%
  pest or weed control at 10 ppm: ≥ 90%
[9]
  inhibition at 1 ppm: ≥ 90%
  inhibition at 5 ppm: ≥ 90%
[10]
  pest or weed control at 5 ppm: ≥ 90%
  pest or weed control at 10 ppm: ≥ 90%
Cucumber seedlings
  safety for plant growth (discoloration, necrosis, wilt, malformation): safe for plant growth
[11]
  pest or weed control at 5 ppm: ≥ 90%
  pest or weed control at 10 ppm: ≥ 90%
[12]
  inhibition at 1 ppm: ≥ 90%
  inhibition at 5 ppm: ≥ 90%
[13]
  pest or weed control at 5 ppm: ≥ 90%
  pest or weed control at 10 ppm: ≥ 90%
[14]
  inhibition at 1 ppm: ≥ 90%
  inhibition at 5 ppm: ≥ 90%

Source: patent US20250313533A1, “QUINOLINE CARBOXYLIC ACID ESTER COMPOUND AND PREPARATION METHOD AND USE THEREOF” (priority 2019, published 2025)
